Results on 22 compounds are retold here after patent US7329657B2, “Indazolyl-substituted pyrroline compounds as kinase inhibitors” (Ortho-McNeil Pharmaceutical, Inc., priority 2000, dated 2008).

What is called IC50 is the point on the concentration scale where inhibition reaches its midpoint.

Common to all, as to assay type: biochemical
For experiment [1], the target named is T1, recombinant rabbit GSK-3β protein (Oryctolagus cuniculus, UniProt G1T8E2).
T1 construct: purchased New England Biolabs
T1 sequence (G1T8E2 1-432): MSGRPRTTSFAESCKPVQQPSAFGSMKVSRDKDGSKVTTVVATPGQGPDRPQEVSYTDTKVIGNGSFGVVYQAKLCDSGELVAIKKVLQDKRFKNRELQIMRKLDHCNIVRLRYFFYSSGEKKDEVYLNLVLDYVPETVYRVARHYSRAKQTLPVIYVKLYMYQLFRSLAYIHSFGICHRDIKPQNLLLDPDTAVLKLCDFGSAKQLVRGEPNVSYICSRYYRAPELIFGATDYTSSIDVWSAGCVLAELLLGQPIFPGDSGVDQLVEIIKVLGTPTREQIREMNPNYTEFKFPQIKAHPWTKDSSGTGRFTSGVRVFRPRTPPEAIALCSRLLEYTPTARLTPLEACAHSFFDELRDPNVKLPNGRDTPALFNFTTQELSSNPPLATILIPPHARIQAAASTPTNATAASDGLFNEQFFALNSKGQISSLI
Nature of the experiment: Glycogen Synthase Kinase-3 Assay. As to conditions: PPI-2 substrate, 33P-ATP, 90 minutes at 30° C. Here is the method: Compounds were tested for the ability to inhibit recombinant rabbit GSK-3β protein using the following protocol. The test compound was added to a reaction mixture containing Protein phosphatase inhibitor-2 (PPI-2) (Calbiochem) (45 ng), rabbit GSK-3β protein (New England Biolabs) (0.75 units) and ^33P-ATP (1 μCi) in 50 mM Tris-HCl (pH 8.0), 10 mM MgCl2, 0.1% BSA, 1 mM DTT and 100 μM Sodium Vanadate. The mixture was reacted for 90 minutes at 30° C. to allow phosphorylation of the PPI-2 protein and then the protein in the reaction was precipitated using 10% TCA. The precipitated protein was collected on filter plates (MultiScreen-DV/Millipore), which were subsequently washed. Finally, the radioactivity was quantified using a TopCount Scintillation Counter (Packard).

Another experiment addresses PKC γ (Homo sapiens, UniProt P05129). Nature of the experiment: Protein Kinase C Histone-Based Assay, γ isoform. The settings on record: histone III substrate, 30 μM ATP, 10 min at 30° C.; read-out: PKC Activity (IC50 μM, Histone Based Assay) Gamma. The protocol:
(§1) Compounds were evaluated for PKC selectivity using histone III as the substrate. […] The reaction was incubated for 10 min at 30° C. Reactions were terminated by TCA precipitation and spotting on Whatman P81 filters. Filters were washed in 75 mM phosphoric acid and the radioactivity quantified by liquid scintillation counting.

In a further experiment the target is PKC α (Homo sapiens, UniProt P17252). Nature of the experiment: Protein Kinase C Histone-Based Assay, α isoform. The settings on record: histone III substrate, 30 μM ATP, 10 min at 30° C.; read-out: PKC Activity (IC50 μM, Histone Based Assay) Alpha. Here is the method:
as §1

A further experiment concerns the target PKC β-II (Homo sapiens, UniProt P05771). Nature of the experiment: Protein Kinase C Histone-Based Assay, β-II isoform. As to conditions: histone III substrate, 30 μM ATP, 10 min at 30° C.; read-out: PKC Activity (IC50 μM, Histone Based Assay) Beta II. The protocol: as §1

Chain of PKC β-II (P05771 1-673 isoform P05771-2): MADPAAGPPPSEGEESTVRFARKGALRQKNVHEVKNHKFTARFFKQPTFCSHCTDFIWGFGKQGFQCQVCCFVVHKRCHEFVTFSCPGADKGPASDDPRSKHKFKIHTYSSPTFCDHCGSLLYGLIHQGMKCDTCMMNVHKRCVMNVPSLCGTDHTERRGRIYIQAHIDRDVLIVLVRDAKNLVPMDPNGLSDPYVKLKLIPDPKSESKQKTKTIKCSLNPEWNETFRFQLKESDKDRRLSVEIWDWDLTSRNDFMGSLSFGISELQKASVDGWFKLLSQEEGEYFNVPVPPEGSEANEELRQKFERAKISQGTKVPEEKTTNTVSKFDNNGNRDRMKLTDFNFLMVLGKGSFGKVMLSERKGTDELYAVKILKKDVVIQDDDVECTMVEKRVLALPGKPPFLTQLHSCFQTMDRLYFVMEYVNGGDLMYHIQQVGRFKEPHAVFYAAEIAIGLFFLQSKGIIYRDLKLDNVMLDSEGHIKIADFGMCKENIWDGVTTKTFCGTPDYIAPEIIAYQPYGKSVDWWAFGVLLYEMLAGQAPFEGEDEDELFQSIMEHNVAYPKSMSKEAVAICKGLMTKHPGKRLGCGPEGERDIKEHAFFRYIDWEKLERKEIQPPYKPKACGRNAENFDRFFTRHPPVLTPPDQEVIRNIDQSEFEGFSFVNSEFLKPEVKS

For the compound `C=Cn1cc(C2=C(c3nn(CC(O)CN(C)C)c4ccc(Cl)cc34)C(=O)NC2=O)c2ccccc21` (stereo not shown) [Compound 4, 3-[5-chloro-1-[3-(dimethylamino)-2-hydroxypropyl]-1H-indazol-3-yl]-4-(1-ethenyl-1H-indol-3-yl)-1H-pyrrole-2,5-dione], the IC50 in experiment [1] was 0.27 µM.
Consider `CN(C)CCCn1nc(C2=C(c3cn(-c4ccncc4)c4ccccc34)C(=O)NC2=O)c2ccccc21` [Compound 32, 3-[1-[3-(dimethylamino)propyl]-1H-indazol-3-yl]-4-[1-(4-pyridinyl)-1H-indol-3-yl]-1H-pyrrole-2,5-dione], for which the IC50 in experiment [1] is 0.51 µM.
Still for that read-out and setting: to `CN(C)CCCn1nc(C2=C(c3cn(-c4cccs4)c4ccc(Cl)cc34)C(=O)NC2=O)c2ccccc21` [Compound 33, 3-[5-chloro-1-(2-thienyl)-1H-indol-3-yl]-4-[1-[3-(dimethylamino)propyl]-1H-indazol-3-yl]-1H-pyrrole-2,5-dione] belongs 0.07 µM.
The same measure, in the same setting: for `CN(C)CCCn1nc(C2=C(c3cn(C)c4ccc(Cl)cc34)C(=O)NC2=O)c2ccccc21` [Compound 43, 3-(5-chloro-1-methyl-1H-indol-3-yl)-4-[1-[3-(dimethylamino)propyl]-1H-indazol-3-yl]-1H-pyrrole-2,5-dione] the value was 0.034 µM; for `CN(C)CCCn1nc(C2=C(c3cn(-c4ccccc4)c4ccc(Cl)cc34)C(=O)NC2=O)c2ccccc21` [Compound 48, 3-(5-chloro-1-phenyl-1H-indol-3-yl)-4-[1-[3-(dimethylamino)propyl]-1H-indazol-3-yl]-1H-pyrrole-2,5-dione], 0.09 µM.
Consider `Cn1cc(C2=C(c3nn(CCCO)c4ccccc34)C(=O)NC2=O)c2cc(Cl)ccc21` [Compound 74, 3-(5-chloro-1-methyl-1H-indol-3-yl)-4-[1-(3-hydroxypropyl)-1H-indazol-3-yl]-1H-pyrrole-2,5-dione], for which the IC50 in experiment [1] worked out at 0.014 µM.
The same measure, in the same setting: for `CC(=O)OCCCn1nc(C2=C(c3cn(C)c4ccc(Cl)cc34)C(=O)NC2=O)c2ccccc21` [Compound 76, 3-[1-[3-(acetyloxy)propyl]-1H-indazol-3-yl]-4-(5-chloro-1-methyl-1H-indol-3-yl)-1H-pyrrole-2,5-dione] the value was 0.085 µM.
For `O=C1NC(=O)C(c2nn(CCCO)c3ccccc23)=C1c1cn(-c2ccc3ccccc3c2)c2ccccc12` [Compound 84, 3-[1-(3-hydroxypropyl)-1H-indazol-3-yl]-4-[1-(2-naphthalenyl)-1H-indol-3-yl]-1H-pyrrole-2,5-dione], the IC50 is 0.206 µM at PKC γ, 0.358 µM at PKC α and 0.057 µM at PKC β-II.
With `O=C1NC(=O)C(c2nn(CCCN3CCCC3)c3ccccc23)=C1c1cn(-c2ccc3ccccc3c2)c2ccccc12` [Compound 85, 3-[1-(2-naphthalenyl)-1H-indol-3-yl]-4-[1-[3-(1-pyrrolidinyl)propyl]-1H-indazol-3-yl]-1H-pyrrole-2,5-dione], the IC50 came out at 0.511 µM on PKC γ, 0.477 µM on PKC α and 0.044 µM on PKC β-II.
As to `CCn1nc(C2=C(c3cn(CCCN4CCOCC4)c4ccccc34)C(=O)NC2=O)c2cc(Cl)ccc21` [Compound 86, 3-(5-chloro-1-ethyl-1H-indazol-3-yl)-4-[1-[3-(4-morpholinyl)propyl]-1H-indol-3-yl]-1H-pyrrole-2,5-dione], the IC50 in experiment [1] came to 0.13 µM.
Consider `CN(CCO)CCCn1nc(C2=C(c3cn(-c4ccc5ccccc5c4)c4ccccc34)C(=O)NC2=O)c2ccccc21` [Compound 88, 3-[1-[3-[(2-hydroxyethyl)methylamino]propyl]-1H-indazol-3-yl]-4-[1-(2-naphthalenyl)-1H-indol-3-yl]-1H-pyrrole-2,5-dione], for which the IC50 at PKC γ worked out at 0.232 µM; at PKC α it was 0.422 µM; on PKC β-II it was 0.038 µM.
In the case of `CCn1cc(C2=C(c3nn(CCCN(C)C)c4ccccc34)C(=O)NC2=O)c2ccc(Cl)cc21` [Compound 90, 3-(6-chloro-1-ethyl-1H-indol-3-yl)-4-[1-[3-(dimethylamino)propyl]-1H-indazol-3-yl]-1H-pyrrole-2,5-dione], the IC50 in experiment [1] is 0.096 µM.
For `CCn1cc(C2=C(c3nn(CCCN(C)C)c4ccccc34)C(=O)NC2=O)c2cccc(Cl)c21` [Compound 95, 3-(7-chloro-1-ethyl-1H-indol-3-yl)-4-[1-[3-(dimethylamino)propyl]-1H-indazol-3-yl]-1H-pyrrole-2,5-dione], the IC50 in experiment [1] is 0.06 µM.
The same measure, in the same setting: for `CCn1cc(C2=C(c3nn(CCCN(C)C)c4ccccc34)C(=O)NC2=O)c2cc(C#N)ccc21` [Compound 98, 3-[4-[1-[3-(dimethylamino)propyl]-1H-indazol-3-yl]-2,5-dihydro-2,5-dioxo-1H-pyrrol-3-yl]-1-ethyl-1H-indole-5-carbonitrile] the value was 0.015 µM.
`CN(C)CCn1nc(C2=C(c3cn(-c4ccc5ccccc5c4)c4ccccc34)C(=O)NC2=O)c2ccccc21` [Compound 101, 3-[1-[2-(dimethylamino)ethyl]-1H-indazol-3-yl]-4-[1-(2-naphthalenyl)-1H-indol-3-yl]-1H-pyrrole-2,5-dione]: the IC50 on PKC γ came out at 0.134 µM; on PKC α, 0.08 µM; on PKC β-II it was 0.019 µM.
Take `O=C1NC(=O)C(c2nn(CCCO)c3ccccc23)=C1c1cn(-c2ccccn2)c2ccccc12` [Compound 102, 3-[1-(3-hydroxypropyl)-1H-indazol-3-yl]-4-[1-(2-pyridinyl)-1H-indol-3-yl]-1H-pyrrole-2,5-dione]: the IC50 in experiment [1] was 0.21 µM.
As to `CN(C)CCn1nc(C2=C(c3cn(-c4csc5ccccc45)c4ccccc34)C(=O)NC2=O)c2ccccc21` [Compound 103, 3-(1-benzo[b]thien-3-yl-1H-indol-3-yl)-4-[1-[2-(dimethylamino)ethyl]-1H-indazol-3-yl]-1H-pyrrole-2,5-dione], the IC50 turned out to be 0.161 µM on PKC γ, 0.189 µM on PKC α and 0.02 µM on PKC β-II.
Take `O=C1NC(=O)C(c2nn(CCCO)c3ccccc23)=C1c1cn(-c2cncc3ccccc23)c2ccccc12` [Compound 105, 3-[1-(3-hydroxypropyl)-1H-indazol-3-yl]-4-[1-(4-isoquinolinyl)-1H-indol-3-yl]-1H-pyrrole-2,5-dione]: the IC50 in experiment [1] turned out to be 0.073 µM.
Same read-out and setting: for `O=C1NC(=O)C(c2nn(CCOCCO)c3ccccc23)=C1c1cn(-c2cccnc2)c2ccccc12` [Compound 106, 3-[1-[2-(2-hydroxyethoxy)ethyl]-1H-indazol-3-yl]-4-[1-(3-pyridinyl)-1H-indol-3-yl]-1H-pyrrole-2,5-dione] the value was 0.033 µM.
On to `NCCCn1nc(C2=C(c3cn(-c4cccnc4)c4ccccc34)C(=O)NC2=O)c2ccccc21` [Compound 109, 3-[1-(3-aminopropyl)-1H-indazol-3-yl]-4-[1-(3-pyridinyl)-1H-indol-3-yl]-1H-pyrrole-2,5-dione], for which the IC50 at PKC γ came to 0.231 µM; at PKC α it was 0.032 µM; at PKC β-II it was 0.005 µM.
For `O=C1NC(=O)C(c2nn(CCO)c3ccccc23)=C1c1cn(-c2cccnc2)c2ccccc12` [Compound 110, 3-[1-(2-hydroxyethyl)-1H-indazol-3-yl]-4-[1-(3-pyridinyl)-1H-indol-3-yl]-1H-pyrrole-2,5-dione], the IC50 in experiment [1] was determined as 0.075 µM.
As for `O=C1NC(=O)C(c2nn(CCCCO)c3ccccc23)=C1c1cn(-c2cccnc2)c2ccccc12` [Compound 111, 3-[1-(4-hydroxybutyl)-1H-indazol-3-yl]-4-[1-(3-pyridinyl)-1H-indol-3-yl]-1H-pyrrole-2,5-dione], the IC50 in experiment [1] worked out at 0.04 µM.
